Patent US20250255959A1, “A SYSTEM FOR DRUG-INDUCIBLE EXPRESSION OF A POLYNUCLEOTIDE” (Miltenyi Biotec B.V. & Co. KG, priority 2022, published 2025)

Columns and labels:
[1] = cited from earlier work
[2] = test system: anti-CD20 CAR expression in primary T cells; test: Induction of anti-CD20 CAR expression in transduced primary T cells, flow cytometry; assay type: cell-based, human; details: 0-250 nM 4-OHT, 40 h
Description: Lentiviral particles encoding for the different drug-inducible cassettes were manufactured as described in example 1.2. Drug-inducible T cells were generated as described in example 1.3. 1E4 LNGFR positive drug-inducible T cells were seeded in 100 μL TexMACS medium (Miltenyi Biotec) supplemented with IL-7 (Miltenyi Biotec) and IL-15 (Miltenyi Biotec) in a 96-round bottom well plate. Anti-CD20 CAR expression was induced by the addition of different concentrations of 4-OHT (0-250 nM, Sigma-Aldrich) in 100 μL μL TexMACS medium (Miltenyi Biotec) supplemented with IL-7 (Miltenyi Biotec) and IL-15 (Miltenyi Biotec) to each well. Untransduced T cells constitute the negative control. T cells that 10 constitutively express an anti-CD20 CAR (“direct CAR”) represent the positive control. Cells were incubated at 37° C. and 5% CO2. T cells were analyzed 40h post induction for anti-CD20 CAR expression by flow cytometry using anti-CD20 CAR detection reagent-PE. […]
Staining was performed for 10 min at 4° C. followed by two successive washing steps with 200 L PEB (300 g, 5 min). […] Frequency of anti-CD20 CAR+inducible T cells (left graph) and mean fluorescence intensity (MFI) of anti-CD20 CAR expression (right graph) was determined and normalized to the expression of the transduction marker LNGFR. […]

Molecule	steady-state plasma levels ([1]; after 80 days of daily dosing)	average peak plasma concentration ([1]; single oral dose of 20 mg)	anti-CD20 CAR surface expression (MFI) versus drug dose [2]	induction ratios of anti-CD20 CAR expression versus drug dose [2]
CC/C(=C(\c1ccccc1)c1ccc(OCCN(C)C)cc1)c1ccccc1 [tamoxifen, 2-(4-((1Z)-1,2-diphenyl-1-butenyl)phenoxy)-N,N-dimethylethanamine]	71 to 183 ng/mL	40 ng/mL		
4-hydroxytamoxifen [4-OHT]			steadily increased with the drug dose	higher drug doses resulting in greater induction ratios
